Read-outs that look alike come from different tables or passages of the source.
Key:
H1975 = experiment: Blocking of sanguinarine-induced apoptosis and EGFR degradation in H1975; format: cell-based; conditions: H1975, 24 hrs, flow cytometry
From the text: The fold change of treated group is normalized to untreated group. Results are expressed as mean±S.E.M. The data represent mean±S.E.M. of three independent experiments. (n=3, ***p<0.001). In FIG. 6B, the up-regulation of NOX 3 by sanguinarine is also confirmed on protein level, which is corresponding to the degradation of EGFR. […] One of representative data is shown (n=3). FIG. 6D uses real-time PCR to detect the RNA expression level of Msr A in five NSCLC cell lines. The expression level of Msr in other 5 cell lines is normalized to that of BEAS-2B cell line. The data represent mean±S.E.M. of three independent experiments (n=3, *p<0.05, **p<0.01, ***p<0.001). The result in this example supports that NADPH oxidase and methionine sulfoxide reductase are key enzymes involved in the ROS generation induced by […] in gefitinib-resistant NSCLC. Schematic diagram of how methionine (Met) is oxidized by NADPH oxidase (ROS) and reduced by methionine sulfoxide reductase is shown in FIG. 5. FIG. 7 is a cell model further illustrating how sanguinarine and H2O2 act on the signaling pathway of inducing EGFR degradation in H1975 cells, and thereby leading to apoptosis of the cells. […]

H2228 (EML4-ALK) [1] = conditions: cited from earlier work
[2] = system: total EGFR, EGFR (pY845) and EGFR (pY1068) in H1975 cells; experiment: Western blot of EGFR markers in H1975 cells; format: cell-based; conditions: 25 μM H2O2
From the text: (§1) FIG. 2A is a control. Among the four cell lines, only H1975 cells have additional T790M mutation on EGFR. […] Compared with sanguinarine, effect of H2O2 on suppression of these markers in H1975 cells is relatively less significant. […] The EGFR degradation is also specific in NSCLC cells having T790M mutation by using sanguinarine or H2O2.

[3] = system: total EGFR, EGFR (pY845) and EGFR (pY1068) in A594 cells; experiment: Western blot of EGFR markers in A594 cells; format: cell-based; conditions: H2O2
From the text: as §1

[4] = system: short EGFR peptide containing the T790M mutation (LIMQL); experiment: ESI-MS of methionine oxidation in short EGFR peptide; format: biochemical; conditions: 10-100 μM H2O2 for 10 min
From the text: The methionine amino acid of a short EGFR peptide containing the T790M mutation could be easily oxidized in a dose-dependent manner under oxidative stress condition. […] A peptide equivalent to the amino acid sequence position from 788 to 792 of EGFR in wild-type (LITQL) and T790M mutant (LIMQL) of EGFR (Sequence acquired from Pubmed database; SEQ. ID. NO. 2/GenBank Accession number of amino acid is NP_005219) is synthesized and both of them are subject to mass spectrometry. In FIG. 4A, ESI-MS detects the standard peptide of LIMQL and oxidized form of the peptide (LIM(O)QL). They are used as standard of the MS pattern of the un-oxidized form of methionine (“M”) and the oxidized form methionine (“M(O)”) for the EGFR short peptide. FIG. 4B-G are ESI-MS results of oxidized methionine in peptide treated with different concentrations of H2O2: FIG. 4B is for H2O2 untreated sample; FIG. 4C is for sample treated with 10 μM H2O2 for 10 min; FIG. 4D is for sample treated with 20 μM H2O2 for 10 min; FIG. 4E is for sample treated with 40 μM H2O2 for 10 min; FIG. 4F is for sample treated with 80 μM H2O2 for 10 min; FIG. 4G is for sample treated with 100 μM H2O2 for 10 min. One of representative data is shown (n=3).

[5] = system: EGFR construct having double mutation (L858R and T790M) in HEK293 cells; experiment: Western blot of total EGFR in HEK293 cells transfected with EGFR L858R+T790M double mutation; format: cell-based
Description: HEK293 cells are used in this example as cell model to be transfected with different constructs of EGFR (wild-type, L858R mutation, Exon 19 deletion, L858R+T790M double mutation). In FIG. 3A, 3 μM saguinarine is added into the HEK293 transfected with different EGFR constructs.

[6] = system: H1650 (EGFR^Exon19 deletion); experiment: IC50 of sanguinarine against NSCLC cell line H1650; format: cell-based; conditions: Homo sapiens, NCI-H1650
From the text: (§2) Among the five cell lines, H1975 is the most sensitive cells to sanguinarine treatment, while A549 is the most resistant one.

H2228 (EML4-ALK) [7] = experiment: IC50 of sanguinarine against NSCLC cell line H2228; format: cell-based; conditions: Homo sapiens, NCI-H2228
From the text: as §2

A549 (EGFR^wild-type) = experiment: IC50 of sanguinarine against NSCLC cell line A549; format: cell-based; conditions: Homo sapiens
From the text: as §2

HCC827(EGFR^L858R) = experiment: IC50 of sanguinarine against NSCLC cell line HCC827; format: cell-based; conditions: Homo sapiens
From the text: as §2

H1975(EGFR^L858R+T790M) = experiment: IC50 of sanguinarine against NSCLC cell line H1975; format: cell-based; conditions: for IC50: Homo sapiens, NCI-H1975
From the text: as §2

For c1ccc2c(c1)[I+]c1ccccc1-2 [DPI], the “blocking of apoptosis and degradation of EGFR induced by sanguinarine” value (H1975) was “blocks the apoptosis and the degradation of EGFR”.

In the case of COc1cc2ncnc(Nc3ccc(F)c(Cl)c3)c2cc1OCCCN1CCOCC1 [Gefitinib], the Gefitinib resistance (H2228 (EML4-ALK) [1]) is listed as “resistance”.

With OO [H2O2] the “expression level of total EGFR and pY845 EGFR” value [2] was “slightly reduced”, the “level of all markers (total EGFR, pY845 EGFR, pY1068 EGFR)” value [3] was “no significant change” and the “oxidation of methionine in short EGFR peptide” value [4] was “oxidized by ROS in a time- and dose-dependent manner”. For the same compound, the “total EGFR level” value ([5]; 200 μM H2O2) was “significant reduction” and the “total EGFR level” value ([5]; 300 μM H2O2) was “more significant reduction”.

For C[n+]1cc2c3c(ccc2c2ccc4cc5c(cc4c21)OCO5)OCO3 [sanguinarine], the IC50 ([6]; H1650, 24 hrs, read-out: IC50 value Treatment (24 hrs)) was 3.47 ± 1.31 µM, the IC50 ([6]; H1650, 48 hrs, read-out: IC50 value Treatment (48 hrs)) was 2.64 ± 1.31 µM and the IC50 (H2228 (EML4-ALK) [7]; H2228, 24 hrs, read-out: IC50 value Treatment (24 hrs)) was 3.73 ± 1.23 µM. It also gave an IC50 (H2228 (EML4-ALK) [7]; H2228, 48 hrs, read-out: IC50 value Treatment (48 hrs)) of 3.08 ± 1.56 µM, an IC50 (A549 (EGFR^wild-type); A549, 24 hrs, read-out: IC50 value Treatment (24 hrs)) of 5.71 ± 1.73 µM and an IC50 (A549 (EGFR^wild-type); A549, 48 hrs, read-out: IC50 value Treatment (48 hrs)) of 3.83 ± 1.11 µM. The IC50 (HCC827(EGFR^L858R); HCC827, 24 hrs, read-out: IC50 value Treatment (24 hrs)) was 1.9 ± 0.248 µM, the IC50 (HCC827(EGFR^L858R); HCC827, 48 hrs, read-out: IC50 value Treatment (48 hrs)) was 1.05 ± 0.27 µM and the “IC50 value in H1975 fold lower than that of A549” value (H1975(EGFR^L858R+T790M); H1975 vs A549) was 8 fold. The “IC50 value in H1975 fold lower than that of H1650” value (H1975(EGFR^L858R+T790M); H1975 vs H1650) was 5.1 fold, the “IC50 value in H1975 fold lower than that of H2228” value (H1975(EGFR^L858R+T790M); H1975 vs H2228) was 5.4 fold and the “IC50 value in H1975 fold lower than that of HCC827” value (H1975(EGFR^L858R+T790M); H1975 vs HCC827) was 3 fold. The IC50 (H1975(EGFR^L858R+T790M); H1975, 24 hrs, read-out: IC50 value Treatment (24 hrs)) was 0.68 ± 0.24 µM and the IC50 (H1975(EGFR^L858R+T790M); H1975, 48 hrs, read-out: IC50 value Treatment (48 hrs)) was 0.58 ± 0.14 µM.

From patent US9439898B2, “Methods for novel drug discovery, treatment and selective targeting for gefitinib-resistant non-small-cell lung cancer harboring T790M mutation” (Macau University of Science and Technology, priority 2014, dated 2016)
